Assay results taken from PMC11345399 (The Journal of Biological Chemistry, 2024).
Values joined by “and” are separate entries in the source; they are usually repeats but may differ in a detail not shown here. Equal values may be shown once. Read-outs that look alike come from different tables or passages of the source. Marks after values point to notes of the source that are not given here.

Columns and labels:
LASV RdRp [1] = biological target: T1, LASV RdRp (Mammarenavirus lassaense, UniProt Q6GWS2); details: cited from earlier work
SARS-CoV-2 RdRp complex [2] = biological target: T2, SARS-CoV-2 RdRp complex (Severe acute respiratory syndrome coronavirus 2, UniProt P0DTD1)
RSV RdRp complex [3] = biological target: T3, RSV RdRp complex (Human respiratory syncytial virus A, UniProt P28887)
PIV-5 RdRp complex = PIV-5 RdRp complex (Parainfluenza virus 5, UniProt Q88434)
MERS-CoV RdRp complex [4] = biological target: T4, MERS-CoV RdRp complex (Middle East respiratory syndrome-related coronavirus, UniProt K9N7C7)
LASV RdRp [5] = biological target: T1, LASV RdRp
PIV-5 RdRp = PIV-5 RdRp (Parainfluenza virus 5, UniProt Q88434); type: biochemical
SARS-CoV-2 RdRp complex [6] = biological target: T2, SARS-CoV-2 RdRp complex; details: cited from earlier work; for Km: previously reported
EV-71 RdRp [7] = type: biochemical
HRV-16 RdRp [8] = biological target: T5, HRV-16 RdRp (Human rhinovirus 16, UniProt Q82122); type: biochemical
HMPV RdRp complex = HMPV RdRp complex (Human metapneumovirus, UniProt Q6WB93)
SARS-CoV RdRp complex = details: cited from earlier work
HPIV-3 RdRp complex = HPIV-3 RdRp complex (Human parainfluenza 3 virus, UniProt P12577)
HMPV RdRp = HMPV RdRp (Human metapneumovirus, UniProt Q6WB93); type: biochemical
[9] = biological target: T6, human mitochondrial RNA polymerase (h-mtRNAP) (Homo sapiens, UniProt O00411); details: cited from earlier work
T6 sequence (O00411 42-1230 limits assumed): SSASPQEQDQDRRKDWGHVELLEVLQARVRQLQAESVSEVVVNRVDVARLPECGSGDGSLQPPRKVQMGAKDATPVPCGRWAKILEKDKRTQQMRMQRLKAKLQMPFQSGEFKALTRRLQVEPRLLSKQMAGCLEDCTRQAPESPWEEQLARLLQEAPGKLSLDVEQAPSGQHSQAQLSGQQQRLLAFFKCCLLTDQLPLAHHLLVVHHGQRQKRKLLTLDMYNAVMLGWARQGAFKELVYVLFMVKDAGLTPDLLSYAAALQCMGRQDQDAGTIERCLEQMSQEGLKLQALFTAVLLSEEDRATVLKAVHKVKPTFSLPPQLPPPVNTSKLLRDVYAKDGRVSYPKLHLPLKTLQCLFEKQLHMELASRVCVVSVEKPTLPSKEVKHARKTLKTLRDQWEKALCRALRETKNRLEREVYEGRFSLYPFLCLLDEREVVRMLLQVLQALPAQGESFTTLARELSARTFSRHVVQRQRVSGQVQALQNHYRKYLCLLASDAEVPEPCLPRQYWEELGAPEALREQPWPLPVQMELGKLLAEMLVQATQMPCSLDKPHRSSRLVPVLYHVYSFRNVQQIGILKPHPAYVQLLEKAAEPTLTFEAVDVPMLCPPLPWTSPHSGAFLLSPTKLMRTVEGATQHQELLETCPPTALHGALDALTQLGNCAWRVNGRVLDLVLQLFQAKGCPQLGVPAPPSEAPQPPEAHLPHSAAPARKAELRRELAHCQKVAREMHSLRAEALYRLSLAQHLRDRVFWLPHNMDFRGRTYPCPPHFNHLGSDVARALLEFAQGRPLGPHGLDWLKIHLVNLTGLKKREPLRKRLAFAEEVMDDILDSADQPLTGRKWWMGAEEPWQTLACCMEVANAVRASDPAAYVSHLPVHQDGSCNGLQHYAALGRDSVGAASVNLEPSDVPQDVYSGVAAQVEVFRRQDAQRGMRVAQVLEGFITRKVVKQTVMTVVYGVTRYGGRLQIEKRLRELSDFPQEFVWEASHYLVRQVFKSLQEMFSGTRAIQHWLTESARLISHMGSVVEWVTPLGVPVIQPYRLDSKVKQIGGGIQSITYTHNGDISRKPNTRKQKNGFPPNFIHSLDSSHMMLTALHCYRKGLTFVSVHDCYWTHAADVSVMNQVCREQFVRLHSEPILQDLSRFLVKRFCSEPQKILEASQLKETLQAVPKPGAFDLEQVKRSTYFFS

HRV-16 RdRp [10] = biological target: T5, HRV-16 RdRp; type: biochemical; remark: listed apart in the source
EV-71 RdRp [11] = type: biochemical; remark: listed apart in the source
SARS-CoV-2 RdRp = SARS-CoV-2 RdRp (Severe acute respiratory syndrome coronavirus 2, UniProt P0DTD1); type: biochemical
influenza B RdRp [12] = biological target: T7, influenza B RdRp (Influenza B virus, UniProt Q5V8Y6); details: cited from earlier work
MERS-CoV RdRp complex [13] = biological target: T4, MERS-CoV RdRp complex; details: cited from earlier work
RSV RdRp complex [14] = biological target: T3, RSV RdRp complex; details: cited from earlier work
HRV-16 RdRp (3Dpol) = HRV-16 RdRp (3Dpol) (Human rhinovirus 16, UniProt Q82122)
MERS-CoV RdRp = MERS-CoV RdRp (Middle East respiratory syndrome-related coronavirus, UniProt K9N7C7); type: biochemical
EV-71 RdRp (3Dpol) = EV-71 RdRp (3Dpol) (Enterovirus A71, UniProt E5RPG3)
HPIV-3 RdRp = HPIV-3 RdRp (Human parainfluenza 3 virus, UniProt P12577); type: biochemical
[15] = biological target: T6, human mitochondrial RNA polymerase (h-mtRNAP); type: biochemical
influenza B RdRp [16] = biological target: T7, influenza B RdRp; type: biochemical
[17] = system: N#C[C@@]1(c2ccc3c(N)ncnn23)O[C@H](COP(=O)(O)OP(=O)(O)OP(=O)(O)O)[C@@H](O)[C@H]1O; experiment: purified protein, by the assay type; details: pH 8.0
[18] = system: Nc1ncnc2c1ncn2[C@@H]1O[C@H](COP(=O)(O)OP(=O)(O)OP(=O)(O)O)[C@@H](O)[C@H]1O; experiment: purified protein, by the assay type; details: pH 8.0
RSV RdRp = RSV RdRp (Human respiratory syncytial virus A, UniProt P28887); type: biochemical
[19] = SARS-CoV-2 RdRp, ref Gordon et al. ([45])

N#C[C@@]1(c2ccc3c(N)ncnn23)O[C@H](COP(=O)(O)OP(=O)(O)OP(=O)(O)O)[C@@H](O)[C@H]1O [GS-443902]
Km (LASV RdRp [1]): 1.3 ± 0.18 µM
Selectivity (fold), Vmax/Km ATP over Vmax/Km analog (LASV RdRp [1]): 20 ^d fold
Vmax (product fraction) (LASV RdRp [1]): 0.35 ± 0.016
Vmax (product fraction) (SARS-CoV-2 RdRp complex [2]): 0.88 ± 0.015
Vmax (product fraction) (RSV RdRp complex [3]): 0.80 ± 0.059
Selectivity (fold), Vmax/Km ATP over Vmax/Km analog (PIV-5 RdRp complex): 8.3 fold and 8.31 fold
Vmax (product fraction) (PIV-5 RdRp complex): 0.77 ± 0.042 and 0.69 ± 0.013
Vmax (product fraction) (MERS-CoV RdRp complex [4]): 0.90 ± 0.012
Vmax (product fraction) (LASV RdRp [5]): 0.29 ± 0.091
Vmax (product fraction) of UTP incorporation at i + 1 (PIV-5 RdRp): 0.48 ± 0.0089
Km (SARS-CoV-2 RdRp complex [6]; [19]): 0.0089 ± 0.002 µM
Selectivity (fold), Vmax/Km ATP over Vmax/Km analog (SARS-CoV-2 RdRp complex [6]; [19]): 0.28 ^d fold
Vmax (product fraction) (SARS-CoV-2 RdRp complex [6]): 0.74 ± 0.023
Inhibition (fold) of UTP incorporation across embedded analog (EV-71 RdRp [7]): ~16 fold
Inhibition (fold) vs Template A (HRV-16 RdRp [8]): ~8 fold and 7.8 fold
UTP (HRV-16 RdRp [8]): 3.9 µM
Selectivity (fold), Vmax/Km ATP over Vmax/Km analog (HMPV RdRp complex): 6.7 fold and 6.71 fold
Vmax (product fraction) (HMPV RdRp complex): 0.57 ± 0.045 and 0.53 ± 0.027
Km (SARS-CoV RdRp complex): 0.01 ± 0.0008 µM
Selectivity (fold), Vmax/Km ATP over Vmax/Km analog (SARS-CoV RdRp complex): 0.32 ^d fold
Vmax (product fraction) (SARS-CoV RdRp complex): 0.70 ± 0.015
Selectivity (fold), Vmax/Km ATP over Vmax/Km analog (HPIV-3 RdRp complex): 7.20 fold
Vmax (product fraction) (HPIV-3 RdRp complex): 0.63 ± 0.010 and 0.78 ± 0.012
Vmax (product fraction) of UTP incorporation at i + 1 (HMPV RdRp): 0.28 ± 0.018
Km [9]: 21 ± 0.096 µM
Vmax (product fraction) [9]: 0.81 ± 0.013
Selectivity (fold), Vmax/Km ATP over Vmax/Km analog ([9]; h-mtRNAP, ref Tchesnokov et al. ([47])): 503 ^e fold
Pattern of inhibition of RNA primer extension after incorporation at position i (HRV-16 RdRp [10]): intermediate product at position “i + 3”
Vmax (product fraction) of UTP incorporation at i + 1 (HRV-16 RdRp [10]): 0.67 ± 0.015
Pattern of inhibition of RNA primer extension after incorporation at position i (EV-71 RdRp [11]): intermediate product at position “i + 3”
Vmax (product fraction) of UTP incorporation at i + 1 (EV-71 RdRp [11]): 0.48 ± 0.005
Pattern of inhibition of RNA primer extension after incorporation at position i (SARS-CoV-2 RdRp): intermediate product at position “i + 3”
Vmax (product fraction) of UTP incorporation at i + 1 (SARS-CoV-2 RdRp): 1.13 ± 0.047
Selectivity (fold), Vmax/Km ATP over Vmax/Km analog (influenza B RdRp [12]; FluB RdRp, ref Gordon et al. ([45])): 68 ^d fold
Vmax (product fraction) (influenza B RdRp [12]): 0.45 ± 0.0064
Km (MERS-CoV RdRp complex [13]): 0.0063 ± 0.0006 µM
Selectivity (fold), Vmax/Km ATP over Vmax/Km analog (MERS-CoV RdRp complex [13]): 0.35 ^d fold
Vmax (product fraction) (MERS-CoV RdRp complex [13]): 0.50 ± 0.012
Selectivity (fold), Vmax/Km ATP over Vmax/Km analog (RSV RdRp complex [14]; RSV RdRp, ref Tchesnokov et al. ([47])): 2.7 fold and 2.73 ^e fold
Km (RSV RdRp complex [14]): 0.5 ± 0.089 µM
Vmax (product fraction) (RSV RdRp complex [14]): 0.82 ± 0.027
Vmax (product fraction) (HRV-16 RdRp (3Dpol)): 0.96 ± 0.015 and 0.80 ± 0.021
Vmax (product fraction) of UTP incorporation at i + 1 (MERS-CoV RdRp): 0.98 ± 0.018
Vmax (product fraction) (EV-71 RdRp (3Dpol)): 0.93 ± 0.027 and 0.93 ± 0.019
Vmax (product fraction) of UTP incorporation at i + 1 (HPIV-3 RdRp): 0.58 ± 0.011
Vmax (product fraction) [15]: 0.67 ± 0.22
Vmax (product fraction) (influenza B RdRp [16]): 0.18 ± 0.0057

HMPV RdRp complex (Human metapneumovirus CAN97-83)
Km [17]: 42.19 ± 7.79 µM

PIV-5 RdRp complex (Simian virus 5 (strain W3))
Km [18]: 1.5 ± 0.25 µM
Km [17]: 13 ± 2.3 µM

HRV-16 RdRp (3Dpol) (rhinovirus A16)
Km [18]: 4.52 ± 0.31 µM
Km [17]: 4.96 ± 0.27 µM

AMP
Vmax (product fraction) of UTP incorporation at i + 1 (RSV RdRp): 0.70 ± 0.037
Vmax (product fraction) of UTP incorporation at i + 1 (PIV-5 RdRp): 0.51 ± 0.022
Vmax (product fraction) of UTP incorporation at i + 1 (HMPV RdRp): 0.48 ± 0.026
Vmax (product fraction) of UTP incorporation at i + 1 (HRV-16 RdRp [10]): 0.76 ± 0.015
Vmax (product fraction) of UTP incorporation at i + 1 (EV-71 RdRp [11]): 0.65 ± 0.003
Vmax (product fraction) of UTP incorporation at i + 1 (MERS-CoV RdRp): 1.03 ± 0.016
Vmax (product fraction) of UTP incorporation at i + 1 (HPIV-3 RdRp): 0.56 ± 0.0097

RSV RdRp complex (Human respiratory syncytial virus A2)
Km [18]: 0.97 ± 0.36 µM

HPIV-3 RdRp complex (Human parainfluenza 3 virus (strain NIH 47885))
Km [18]: 0.061 ± 0.015 µM
Km [17]: 0.44 ± 0.040 µM

EV-71 RdRp (3Dpol) (Enterovirus A71)
Km [18]: 0.96 ± 0.066 µM
Km [17]: 0.86 ± 0.081 µM

SARS-CoV-2 RdRp complex (Severe acute respiratory syndrome coronavirus 2)
Km [18]: 0.057 ± 0.0078 µM

MERS-CoV RdRp complex (Betacoronavirus England 1)
Km [18]: 0.032 ± 0.0014 µM

Nc1ncnc2c1ncn2[C@@H]1O[C@H](COP(=O)(O)OP(=O)(O)OP(=O)(O)O)[C@@H](O)[C@H]1O [ATP]
Km (LASV RdRp [1]): 0.11 ± 0.02 µM
Vmax (product fraction) (LASV RdRp [1]): 0.57 ± 0.032
Vmax (product fraction) (RSV RdRp complex [3]): 0.61 ± 0.065
Vmax (product fraction) (PIV-5 RdRp complex): 0.74 ± 0.026
Vmax (product fraction) (MERS-CoV RdRp complex [4]): 0.84 ± 0.0090
Vmax (product fraction) (LASV RdRp [5]): 0.80 ± 0.0037
Km (SARS-CoV-2 RdRp complex [6]; [19]): 0.03 ± 0.003 µM
Vmax (product fraction) (HMPV RdRp complex): 0.60 ± 0.024 and 0.39 ± 0.028
Km (SARS-CoV RdRp complex): 0.03 ± 0.003 µM
Vmax (product fraction) (SARS-CoV RdRp complex): 0.73 ± 0.017
Vmax (product fraction) (HPIV-3 RdRp complex): 0.63 ± 0.025
Km [9]: 0.05 ± 0.0037 µM
Vmax (product fraction) [9]: 0.98 ± 0.018
Vmax (product fraction) (influenza B RdRp [12]): 0.73 ± 0.014
Km (MERS-CoV RdRp complex [13]): 0.017 ± 0.019 µM
Vmax (product fraction) (MERS-CoV RdRp complex [13]): 0.47 ± 0.011
Km (RSV RdRp complex [14]): 0.17 ± 0.023 µM
Vmax (product fraction) (RSV RdRp complex [14]): 0.76 ± 0.022
Vmax (product fraction) (HRV-16 RdRp (3Dpol)): 0.90 ± 0.017
Vmax (product fraction) (EV-71 RdRp (3Dpol)): 0.96 ± 0.021
Km [15]: 0.096 ± 0.0091 µM
Vmax (product fraction) [15]: 0.93 ± 0.026
Vmax (product fraction) (influenza B RdRp [16]): 0.68 ± 0.014

LASV RdRp (Lassa virus Josiah)
Km [18]: 0.39 ± 0.075 µM
